According to patent US11993640B2, “Treating inflammatory lung disease” (United States Government as represented by the Department …, priority 2019, dated 2024):
Non-standard residues stand in square brackets, D forms with d. Residues, ends and D or L forms follow the SMILES beside them. *: point of attachment. Phe(F5) = N[C@@H](Cc1c(F)c(F)c(F)c(F)c1F)C(=O)O; hArg = N=C(N)NCCCC[C@H](N)C(=O)O; 12Ado = NCCCCCCCCCCCC(=O)O; Nle = CCCC[C@H](N)C(=O)O; Orn = NCCC[C@H](N)C(=O)O; Abu = CC[C@H](N)C(=O)O; PhAc = O=C(Cc1ccccc1)*

What was measured:
[1] = system: C57Bl/6J mice treated with bleomycin; experiment: RNAseq and pathway analysis of lung tissue of bleomycin-treated mice; format: in vivo, mouse; settings: bleomycin 28 days, MIA-602 versus vehicle
Procedure: (§1) Bleomycin and GHRH-R antagonist treatment. Mice were treated with 0.8 units of bleomycin (Bleomycin for Injection USP, Hospira, Lake Forest, IL) intraperitoneally (IP) on days 1, 3, 7, 10, 14 and 21 (Collins S, Chan-Li Y, Oh M, Vigeland C, Limjunyawong N, Mitzner W, Powell J D, Horton M R (2016). JCI Insight 1(4):1-13). Mice (randomly assigned) were simultaneously treated subcutaneously (sc) with MIA-602 (5 μg/day) or its vehicle (100 μL/day). MIA-602 was dissolved in DMSO (ACS grade; Sigma-Aldrich) and diluted 1:500 in normal saline for daily sc injection on days 0-21.
RNA isolation. RNA was extracted from fixed lung tissue in paraffin blocks using a Quick-RNA™ FFPE Kit (R1008, Zymo Research, Irvine, CA) following the manufacturer's protocol (Patel P, Selvarajah S, Guerard K, Bartlett J, Lapointe J, Berman D, Okello J, Park P (2017). PLoS ONE 12:e0179732). […]
RNAseq and Pathway analyses. […] Cluster generation and sequencing was done on the Illumina cBOT and HiSeq 3000 using reagents provided by Illumina, finally generating >32 million single-end 100 base reads per sample. […]
Gene counts were normalized using trimmed mean of M-values (TMM) method. Differential expression between groups was calculated with the exact test implemented in edgeR (Robinson M, McCarthy D, Smyth G (2010). Bioinformatics 26:139-140). […]

[2] = system: C57Bl/6J mice treated with bleomycin; experiment: Bleomycin lung injury model, micro-CT of lungs; format: in vivo, mouse; settings: bleomycin plus MIA-602
Procedure: Experimental animals. 8-week old C57Bl/6J male mice (The Jackson Laboratory, Bar Harbor, ME) were used in these experiments. Mice weighed about 26 grams at the start. Mice were randomly allocated to the experimental groups and housed in identical filter top cages in a ventilated rack. Mice were exposed to a 12-hour light/dark cycle and had free access to standard laboratory chow and water.
as §1
Tissue preparations. Mice were killed by CO2 inhalation before any treatment, or on days 14 or 28 for micro-CT scans of lungs and harvesting of lung tissue (Vande Velde G, Poelmans J, De Langhe E, Hillen A, Vanoirbeek J, Himmelreich U, Lories R (2016). Dis Model Mech 9:91). […]
Micro-CT. Mice in each group were assessed by micro-CT scans (Bruker SkyScan 1176 Low Dose Micro-CT, Knotich, Belgium) of the lungs after CO2 inhalation. […]

PC3 cells = experiment: In vitro cell viability, prostatic cancer PC3; format: cell-based, human; settings: 5 μM, 72 h; relative to MIA602 = 1; Table 3A
Procedure: The inhibitory effects of the various synthesized GHRH antagonists were tested in cell proliferation assays in various human cancer cell lines including stomach cancer (KATOIII, N87), colon cancer (HT-29), urothelial cancer (J82, RT4), pancreatic cancer (PANC-1, CFPAC-1), prostatic cancer (PC3), breast cancer (MX-1, HCC1806), ovarian cancer (SK-OV-3, OVCAR-3) and lung cancer (HCC827, H460).
Cell culture. Human cancer cell lines including pancreatic (PANC-1 and CFPAC-1), lung (HCC827 and H460), stomach (NCI-N87 and KATOIII), urothelial (J82, RT4), prostatic (PC3), breast (MX-1 and HCC 1806), colorectal (HT-29), and ovarian (SK-OV-3 and OVCAR-3) were obtained from the American Type Culture Collection (ATCC) and cultured at 37° C. in a humidified 95% air/5% CO2 atmosphere in the medium recommended by ATCC.
In vitro cell viability. Cell viability was analyzed as follows: cancer cells including pancreatic (PANC-1 and CFPAC-1), lung (HCC827 and H460), stomach (NCI-N87 and KATOIII), urothelial (J82, RT4), prostatic (PC3) and breast (MX-1 and HCC 1806), colorectal (HT-29) and ovarian (SK-OV-3 and OVCAR-3) were grown on 96 well plates to ˜60% confluence, the cells were starved for 24 h in culture medium containing 0.5% FBS. Cells were then treated with GHRH antagonists MIA602 AVR compounds at concentrations of 1, 2.5 or 5 μM, or vehicle (0.1% DMSO) in quintuplicates for 72 hours. The medium was replaced every 48 hours. Cell viability was measured using CellTiter 96 aqueous one solution kit (Promega). Inhibitory effects of tested AVR compounds in comparison to that of MIA602 are presented as inhibitory potency.
Inhibitory effects of selected AVR compounds in comparison to that of MIA602 are presented as inhibitory potency (e.g., percentage of inhibition). […] The cell lines tested including lung cancer HCC827 (FIG. 2A), pancreatic cancer CFPAC-1 (FIG. 2B), stomach cancer N87 (FIG. 2C), colon cancer HT-29 (FIG. 2D), breast cancers MX-1 and HCC1806 (FIGS. 2E, F). […]

Question: Which “Lung gene expression, RNA-seq pathway analysis” value [1] does the source give for `CCCC[C@H](NC(=O)[C@@H](NC(=O)[C@H](CC(=O)O)NC(=O)[C@H](CCC(N)=O)NC(=O)[C@H](CC(C)C)NC(=O)[C@H](CC(C)C)NC(=O)[C@H](CCCN)NC(=O)[C@H](Cc1c[nH]cn1)NC(=O)[C@H](C)NC(=O)[C@H](CO)NC(=O)[C@H](CC(C)C)NC(=O)[C@H](CCC(N)=O)NC(=O)[C@H](CC)NC(=O)[C@H](CC(C)C)NC(=O)[C@@H](NC(=O)[C@H](CCCN)NC(=O)[C@H](Cc1c[nH]cn1)NC(=O)[C@H](Cc1ccc(OC)cc1)NC(=O)[C@H](CCCCNC(=N)N)NC(=O)[C@H](C)NC(=O)[C@@H](NC(=O)[C@H](Cc1c(F)c(F)c(F)c(F)c1F)NC(=O)[C@@H](NC(=O)[C@H](C)NC(=O)[C@H](CC(=O)O)NC(=O)[C@@H](CCCNC(=N)N)NC(=O)[C@H](Cc1ccc(O)cc1)NC(=O)CCCCCCCCCCCNC(=O)Cc1ccccc1)[C@@H](C)CC)[C@@H](C)O)C(C)C)[C@@H](C)CC)C(=O)N[C@H](CCCNC(=N)N)C(=O)N[C@@H](CCCCNC(=N)N)C(N)=O` [MIA-602, PhAC-Ada, Tyr D-Arg, Asp, Ala, Ile, 5FPhe, Thr, Ala, Har, Tyr(Me), His, Orn, Val, Leu, Abu, Gin, Leu, Ser, Ala, His, Orn, Leu, Leu, Gin, Asp, Ile, Nle, D-Arg, Har NH2, reference compound] ({PhAc-12Ado}-Y[dR]DAI[Phe(F5)]TA[hArg]Y(Me)H[Orn]VL[Abu]QLSAH[Orn]LLQDI[Nle][dR][hArg]-NH2) here?
Answer: suppression of the adaptive immune response, T cell differentiation and activation and cytokine production

Question: And the “Infiltrative densities in lungs on micro-CT” value [2]?
Answer: less prominent infiltrative densities

Question: What about the “Relative inhibitory potency, Prostatic PC3” value (PC3 cells) of the same compound?
Answer: 1
